The values below come from PubChem BioAssay AID292 (DTP/NCI, 2004).

The assay has as its system B6C3F1 mice, ip Sarcoma M5076, median survival T/C. Put plainly: NCI In Vivo Anticancer Drug Screen. Data for tumor model Sarcoma M5076 (intraperitoneal) in B6C3F1 mice. Conditions: endpoint: median survival time, higher = longer survival. In short, it runs like this:
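The readout is a ratio of survival in drug-treated animals to survival in animals given vehicle alone, taken in mice bearing a transplanted tumour line.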

Setting [1] is: dose: 150.0 mg/kg/injection, schedule: Q04DX004 (ip), vehicle: saline with Tween-80.
The mark [2] stands for this setting: dose: 300.0 mg/kg/injection, schedule: Q04DX004 (ip), vehicle: saline with Tween-80.

Where “and” joins values, the source holds several entries; their conditions need not be identical. Identical values can stand only once. Toxic doses and inconclusive results are not listed.

As for `CC1=C[P+](c2ccccc2)(c2ccccc2)C=C(c2ccccc2)O1`, the T/C was 110 % of control (dose: 1.25 mg/kg/injection, schedule: Q04DX004 (ip), vehicle: saline + alcohol); 110 % of control (dose: 5.0 mg/kg/injection, schedule: Q04DX004 (ip), vehicle: saline + alcohol); 117 % of control (dose: 10.0 mg/kg/injection, schedule: Q04DX004 (ip), vehicle: saline + alcohol).

As to `[Cl][Hg][Cl]`, the T/C runs as follows: (dose: 0.38 mg/kg/injection, schedule: Q04DX004 (ip), vehicle: saline) 93 % of control; (dose: 0.39 mg/kg/injection, schedule: Q04DX004 (ip), vehicle: saline) 96 % of control; (dose: 0.75 mg/kg/injection, schedule: Q04DX004 (ip), vehicle: saline) 96 % of control; (dose: 0.78 mg/kg/injection, schedule: Q04DX004 (ip), vehicle: saline) 86 % of control; (dose: 1.5 mg/kg/injection, schedule: Q04DX004 (ip), vehicle: saline) 96 % of control; (dose: 1.56 mg/kg/injection, schedule: Q04DX004 (ip), vehicle: saline) 87 % of control. In addition, the T/C is 93 % of control (dose: 3.0 mg/kg/injection, schedule: Q04DX004 (ip), vehicle: saline) and 87 % of control (dose: 3.12 mg/kg/injection, schedule: Q04DX004 (ip), vehicle: saline).

`OCC1OC(n2cnc3cc(Cl)c(Cl)cc32)C(O)C1O` (stereo not drawn): the T/C runs as follows: under setting [1], 104 % of control; under setting [2], 109 % of control; (dose: 600.0 mg/kg/injection, schedule: Q04DX004 (ip), vehicle: saline with Tween-80) 107 % of control.

`CN1CCN(c2ccc3nc(-c4ccc5nc(-c6ccc(O)cc6)[nH]c5c4)[nH]c3c2)CC1`: the T/C was 96 % of control (dose: 28.0 mg/kg/injection, schedule: Q04DX004 (ip), vehicle: saline); 92 % of control (dose: 56.0 mg/kg/injection, schedule: Q04DX004 (ip), vehicle: saline); 100 % of control (dose: 112.0 mg/kg/injection, schedule: Q04DX004 (ip), vehicle: saline); 86 % of control (dose: 225.0 mg/kg/injection, schedule: Q04DX004 (ip), vehicle: saline).

On to `CCN(Cc1ccc(Cl)c(Cl)c1)c1ccc2nc(N)nc(N)c2c1C`, for which the T/C is 107 % of control (dose: 6.25 mg/kg/injection, schedule: Q04DX004 (ip), vehicle: saline); 107 % of control and 122 % of control (dose: 12.5 mg/kg/injection, schedule: Q04DX004 (ip), vehicle: saline); 118 % of control (2×) and 123 % of control (dose: 25.0 mg/kg/injection, schedule: Q04DX004 (ip), vehicle: saline); 110 % of control (dose: 50.0 mg/kg/injection, schedule: Q04DX004 (ip), vehicle: saline).

In the case of `CC(=O)C1C(=O)C(=O)N(Cc2ccccc2)C1=O` (stereo not drawn), the T/C reads like this: (dose: 46.88 mg/kg/injection, schedule: Q04DX004 (ip), vehicle: Klucel (hydroxypropylcellulose) (HPC)) 98 % of control; (dose: 93.75 mg/kg/injection, schedule: Q04DX004 (ip), vehicle: Klucel (hydroxypropylcellulose) (HPC)) 95 % of control; (dose: 187.5 mg/kg/injection, schedule: Q04DX004 (ip), vehicle: Klucel (hydroxypropylcellulose) (HPC)) 99 % of control; (dose: 375.0 mg/kg/injection, schedule: Q04DX004 (ip), vehicle: Klucel (hydroxypropylcellulose) (HPC)) 98 % of control.

For `CC1=CC(C)C(O)C(C)/C=C/C(O)C/C=C(/C)C(=O)CC(O)C(C)\C=C/C=C/C=C\C(=O)NC2=C(O)c3cc(C)c(O)c(c3C(=O)C2=O)C1=O` (stereo not drawn), the T/C (dose: 1.25 mg/kg/injection, schedule: Q04DX004 (ip), vehicle: Klucel (hydroxypropylcellulose) (HPC)) was 109 % of control; the T/C (dose: 2.5 mg/kg/injection, schedule: Q04DX004 (ip), vehicle: Klucel (hydroxypropylcellulose) (HPC)) is 97 % of control; the T/C (dose: 5.0 mg/kg/injection, schedule: Q04DX004 (ip), vehicle: Klucel (hydroxypropylcellulose) (HPC)) is 102 % of control; the T/C (dose: 10.0 mg/kg/injection, schedule: Q04DX004 (ip), vehicle: Klucel (hydroxypropylcellulose) (HPC)) is 102 % of control; the T/C (dose: 25.0 mg/kg/injection, schedule: Q04DX004 (ip), vehicle: Klucel (hydroxypropylcellulose) (HPC)) is 98 % of control.

With `OC(C1CO1)C(O)C1CO1` (stereo not drawn), the T/C (dose: 1.0 mg/kg/injection, schedule: Q04DX005 (ip), vehicle: saline) was 123 % of control; the T/C (dose: 2.0 mg/kg/injection, schedule: Q04DX005 (ip), vehicle: saline) was 169 % of control; the T/C (dose: 4.0 mg/kg/injection, schedule: Q04DX005 (ip), vehicle: saline) is 287 % of control; the T/C (dose: 8.0 mg/kg/injection, schedule: Q04DX005 (ip), vehicle: saline) was 319 % of control.

Regarding `CC(O)(CSc1ccccc1)CSc1ccccc1` (tested in a mixture with another compound), the T/C was 104 % of control (dose: 18.75 mg/kg/injection, schedule: Q04DX004 (ip), vehicle: saline with Tween-80); 98 % of control (dose: 37.5 mg/kg/injection, schedule: Q04DX004 (ip), vehicle: saline with Tween-80); 100 % of control (dose: 75.0 mg/kg/injection, schedule: Q04DX004 (ip), vehicle: saline with Tween-80); 101 % of control under setting [1]; 100 % of control under setting [2].

Consider `Clc1ccc(-c2noc(CN3CCCCC3)n2)cc1`, for which the T/C by setting is: (dose: 50.0 mg/kg/injection, schedule: Q04DX004 (ip), vehicle: saline with Tween-80) 92 % of control; (dose: 100.0 mg/kg/injection, schedule: Q04DX004 (ip), vehicle: saline with Tween-80) 96 % of control; (dose: 200.0 mg/kg/injection, schedule: Q04DX004 (ip), vehicle: saline with Tween-80) 97 % of control.

Consider `COC1=CCC23C(=O)C=CC(=O)C2(C1)C(=O)c1ccccc1C3=O` (stereo not drawn), for which the T/C is 110 % of control (dose: 1.5 mg/kg/injection, schedule: Q04DX004 (ip), vehicle: saline with Tween-80); 95 % of control (dose: 3.0 mg/kg/injection, schedule: Q04DX004 (ip), vehicle: saline with Tween-80); 94 % of control (dose: 6.0 mg/kg/injection, schedule: Q04DX004 (ip), vehicle: saline with Tween-80); 98 % of control (dose: 12.0 mg/kg/injection, schedule: Q04DX004 (ip), vehicle: saline with Tween-80); 108 % of control (dose: 24.0 mg/kg/injection, schedule: Q04DX004 (ip), vehicle: saline with Tween-80).

As for `Nc1ncn(C2OC(CO)C(O)C2O)c(=O)n1` (stereo not drawn), the T/C runs as follows: (dose: 0.38 mg/kg/injection, schedule: Q01DX009 (ip), vehicle: saline) 100 % of control and 101 % of control; (dose: 0.75 mg/kg/injection, schedule: Q01DX009 (ip), vehicle: saline) 109 % of control and 114 % of control; (dose: 1.5 mg/kg/injection, schedule: Q01DX009 (ip), vehicle: saline) 112 % of control and 115 % of control; (dose: 25.0 mg/kg/injection, schedule: Q01DX009 (ip), vehicle: saline) 150 % of control; (dose: 50.0 mg/kg/injection, schedule: Q01DX009 (ip), vehicle: saline) 155 % of control and 159 % of control; (dose: 100.0 mg/kg/injection, schedule: Q01DX009 (ip), vehicle: saline) 172 % of control.

With `O=C1c2ccccc2C(=O)c2c(NCCNCCO)ccc(NCCNCCO)c21`, the T/C is 112 % of control (dose: 1.0 mg/kg/injection, schedule: Q04DX004 (ip), vehicle: saline); 120 % of control (dose: 2.0 mg/kg/injection, schedule: Q04DX004 (ip), vehicle: saline); 234 % of control (dose: 5.0 mg/kg/injection, schedule: Q04DX005 (ip), vehicle: saline); 158 % of control (dose: 8.0 mg/kg/injection, schedule: Q04DX004 (ip), vehicle: saline); 319 % of control (dose: 10.0 mg/kg/injection, schedule: Q04DX005 (ip), vehicle: saline); 174 % of control (dose: 16.0 mg/kg/injection, schedule: Q04DX004 (ip), vehicle: saline). Besides, the T/C by setting is: (dose: 20.0 mg/kg/injection, schedule: Q04DX004 (ip), vehicle: suspension in saline) 156 % of control; (dose: 40.0 mg/kg/injection, schedule: Q04DX004 (ip), vehicle: suspension in saline) 172 % of control.

As to `CCOc1cc2c(cc1C(C)c1ccc(OC)cc1)OCO2` (stereo not drawn), the T/C (dose: 50.0 mg/kg/injection, schedule: Q04DX004 (ip), vehicle: distilled water + alcohol) is 119 % of control; the T/C (dose: 100.0 mg/kg/injection, schedule: Q04DX004 (ip), vehicle: distilled water + alcohol) was 110 % of control; the T/C (dose: 200.0 mg/kg/injection, schedule: Q04DX004 (ip), vehicle: distilled water + alcohol) was 123 % of control.

`c1ccc2[nH]c(CN(CCN(Cc3nc4ccccc4[nH]3)Cc3nc4ccccc4[nH]3)Cc3nc4ccccc4[nH]3)nc2c1`: the T/C is, setting by setting: (dose: 3.12 mg/kg/injection, schedule: Q04DX004 (ip), vehicle: other) 103 % of control; (dose: 6.25 mg/kg/injection, schedule: Q04DX004 (ip), vehicle: other) 108 % of control; (dose: 12.5 mg/kg/injection, schedule: Q04DX004 (ip), vehicle: other) 100 % of control.
